Experimental data published in patent publication US5889013A, “Pyrimidine acyclonucleoside derivatives” (priority 1994, dated 1999).

How the values were obtained:
HIV-1 (HTLV-IIIB strain) = assay: Inhibitory activity for HIV-induced cytopathogenicity (MT-4 cells, MTT method); type: cell-based; conditions: Human immunodeficiency virus 1, IIIB, MT4, 144 h, read-out: 50% inhibitory concentration of HIV infection
Protocol: (§1) In RPMI 1640 culture medium supplemented with 10% heat-inactivated fetal bovine serum, 2 mM of L-glutamine, 100 U/mL of penicillin G and 100 μg/mL of streptomycin, MT-4 cells (HTLV-1 transformed T4-cell line) at a concentration of 1×10^4 /well in a flat-bottom, microtiter plate were infected with 500 TCID50 of HIV-1 (HTLV-IIIB strain). Immediately after virus infection, sample serially diluted with culture medium from stock solution prepared in dimethyl sulfoxide was added to each well in quadriplicate. After 6 days incubation at 37° C., the viability of mock and HIV-infected cells was determined by the 3-(4,5-dimethylthiazol-2-yl)-2,5-diphenyltetrazolium bromide (MTT) method. And also, the cytotoxicity of sample to MT-4 cells not infected with HIV was assessed in parallel with its antiviral activity under the same way as above.

[1] = Cytotoxicity to MT-4 cells not infected with HIV (MTT method); type: cell-based; conditions: human; MT-4 cells not infected with HIV, 6 days, 37° C., MTT; read-out: 50% cytotoxic concentration to MT-4 cells
Protocol: as §1

Row | Structure (SMILES) | IC50 (HIV-1 (HTLV-IIIB strain)) | CC50 at 144 h [1]
1 | CCc1c([Se]c2cccc(C)c2)n(COCCO)c(=S)[nH]c1=O [Compound 2, 5-ethyl-1-[(2-hydroxyethoxy)methyl]-6-[(3-methylphenyl)selenenyl]-2-thiouracil] | 40 nM | 32 µM
2 | CCc1c([Se]c2cc(C)cc(C)c2)n(COCCO)c(=S)[nH]c1=O [Compound 3, 6-[(3,5-dimethylphenyl)selenenyl]-5-ethyl-1-[(2-hydroxyethoxy)methyl]-2-thiouracil] | 30 nM | 32.5 µM
3 | Cc1cccc([Se]c2c(C(C)C)c(=O)[nH]c(=S)n2COCCO)c1 [Compound 5, 1-[(2-hydroxyethoxy)methyl]-5-isopropyl-6-[(3-methylphenyl)-selenenyl]-2-thiouracil] | 38 nM | 31.7 µM
4 | Cc1cc(C)cc([Se]c2c(C(C)C)c(=O)[nH]c(=S)n2COCCO)c1 [Compound 6, 6-[(3,5-dimethylphenyl)selenenyl]-1-[(2-hydroxyethoxy)methyl]-5-isopropyl-2-thiouracil] | 8 nM | 32.4 µM
5 | CCc1c([Se]c2cc(C)cc(C)c2)n(COCCO)c(=O)[nH]c1=O [Compound 9, 6-[(3,5-dimethylphenyl)selenenyl]-5-ethyl-1-[(2-hydroxyethoxy)-methyl]uracil] | 15 nM | 34.5 µM
6 | Cc1cccc([Se]c2c(C(C)C)c(=O)[nH]c(=O)n2COCCO)c1 [Compound 11, 1-[(2-hydroxyethoxy)methyl]-5-isopropyl-6-[(3-methylphenyl)-selenenyl]uracil] | 15 nM | 30.5 µM
7 | Cc1cc(C)cc([Se]c2c(C(C)C)c(=O)[nH]c(=O)n2COCCO)c1 [Compound 12, 6-[(3,5-dimethylphenyl)selenenyl]-1-[(2-hydroxyethoxy)methyl]-5-isopropyluracil] | 1.9 nM | 29.1 µM
8 | CCOCn1c([Se]c2ccccc2)c(CC)c(=O)[nH]c1=S [Compound 15, 1-(ethoxymethyl)-5-ethyl-6-(phenylselenenyl)-2-thiouracil] | 24 nM | 26.1 µM
9 | CCOCn1c([Se]c2cccc(C)c2)c(CC)c(=O)[nH]c1=S [Compound 16, 1-(ethoxymethyl)-5-ethyl-6-[(3-methylphenyl)selenenyl]-2-thiouracil] | 8 nM | 24.8 µM
10 | CCOCn1c([Se]c2cc(C)cc(C)c2)c(CC)c(=O)[nH]c1=S [Compound 17, 6-[(3,5-dimethylphenyl)selenenyl]-1-(ethoxymethyl)-5-ethyl-2-thiouracil] | 8 nM | 28.8 µM
11 | CCOCn1c([Se]c2cc(F)cc(F)c2)c(CC)c(=O)[nH]c1=S [Compound 18, 6-[(3,5-difluorophenyl)selenenyl]-1-(ethoxymethyl)-5-ethyl-2-thiouracil] | 14 nM | 7.8 µM
12 | CCc1c([Se]c2ccccc2)n(COCc2ccccc2)c(=S)[nH]c1=O [Compound 19, 1-[(benzyloxy)methyl)-5-ethyl-6-(phenylselenenyl)-2-thiouracil] | 4 nM | 25.1 µM
13 | CCc1c([Se]c2cccc(C)c2)n(COCc2ccccc2)c(=S)[nH]c1=O [Compound 20, 1-[(benzyloxy)methyl]-5-ethyl-6-[(3-methylphenyl)selenenyl]-2-thiouracil] | 0.8 nM | 43.4 µM
14 | CCc1c([Se]c2cc(C)cc(C)c2)n(COCc2ccccc2)c(=S)[nH]c1=O [Compound 21, 1-[(benzyloxy)methyl]-6-[(3,5-dimethylphenyl)selenenyl]-5-ethyl-2-thiouracil] | 1.7 nM | 24.1 µM
15 | CCOCn1c([Se]c2ccccc2)c(C(C)C)c(=O)[nH]c1=S [Compound 22, 1-(ethoxymethyl)-5-isopropyl-6-(phenylselenenyl)-2-thiouracil] | 1.5 nM | 30.1 µM
16 | CCOCn1c([Se]c2cccc(C)c2)c(C(C)C)c(=O)[nH]c1=S [Compound 23, 1-(ethoxymethyl)-5-isopropyl-6-[(3-methylphenyl)selenenyl]-2-thiouracil] | 3.6 nM | 30.6 µM
17 | CCOCn1c([Se]c2cc(C)cc(C)c2)c(C(C)C)c(=O)[nH]c1=S [Compound 24, 6-[(3,5-dimethylphenyl)selenenyl]-1-(ethoxymethyl)-5-isopropyl-2-thiouracil] | 1.6 nM | 31.7 µM
18 | CCOCn1c([Se]c2cc(F)cc(F)c2)c(C(C)C)c(=O)[nH]c1=S [Compound 25, 6-[(3,5-difluorophenyl)selenenyl]-1-(ethoxymethyl)-5-isopropyl-2-thiouracil] | 27 nM | 19.7 µM
19 | CC(C)c1c([Se]c2ccccc2)n(COCc2ccccc2)c(=S)[nH]c1=O [Compound 26, 1-[(benzyloxy)methyl]-5-isopropyl-6-(phenylselenenyl)-2-thiouracil] | 0.7 nM | 30.2 µM

Row | Structure (SMILES) | IC50 (HIV-1 (HTLV-IIIB strain)) | CC50 at 144 h [1]
20 | Cc1cccc([Se]c2c(C(C)C)c(=O)[nH]c(=S)n2COCc2ccccc2)c1 [Compound 27, 1-[(benzyloxy)methyl]-5-isopropyl-6-[(3-methylphenyl)selenenyl]-2-thiouracil] | 1.1 nM | 30 µM
21 | Cc1cc(C)cc([Se]c2c(C(C)C)c(=O)[nH]c(=S)n2COCc2ccccc2)c1 [Compound 28, 1-[(benzyloxy)methyl]-6-[(3,5-dimethylphenyl)selenenyl]-5-isopropyl-2-thiouracil] | 5.4 nM | 30.9 µM
22 | CCOCn1c([Se]c2cccc(C)c2)c(CC)c(=O)[nH]c1=O [Compound 29, 1-(ethoxymethyl)-5-ethyl-6-[(3-methylphenyl)selenenyl]uracil] | 4 nM | 32.1 µM
23 | CCOCn1c([Se]c2cc(C)cc(C)c2)c(CC)c(=O)[nH]c1=O [Compound 30, 6-[(3,5-dimethylphenyl)selenenyl]-1-(ethoxymethyl)-5-etlyluracil] | 0.6 nM | 28.9 µM
24 | CCOCn1c([Se]c2cc(F)cc(F)c2)c(CC)c(=O)[nH]c1=O [Compound 32, 6-[(3,5-difluorophenyl)selenenyl]-1-(ethoxymethyl)-5-ethyluracil] | 6 nM | 30.6 µM
25 | CCc1c([Se]c2cccc(C)c2)n(COCc2ccccc2)c(=O)[nH]c1=O [Compound 37, 1-[(benzyloxy)methyl]-5-ethyl-6-[(3-methylphenyl)selenenyl]uracil] | 0.21 nM | 28.8 µM
26 | CCc1c([Se]c2cc(C)cc(C)c2)n(COCc2ccccc2)c(=O)[nH]c1=O [Compound 38, 1-[(benzyloxy)methyl]-6-[(3,5-dimethylphenyl)selenenyl]-5-ethyluracil] | 0.08 nM | 31.7 µM
27 | CCOCn1c([Se]c2ccccc2)c(C(C)C)c(=O)[nH]c1=O [Compound 48, 1-(ethoxymethyl)-5-isopropyl-6-(phenylselenenyl)uracil] | 4.2 nM | 32.5 µM
28 | CCOCn1c([Se]c2cccc(C)c2)c(C(C)C)c(=O)[nH]c1=O [Compound 49, 1-(ethoxymethyl)-5-isopropyl-6-[(3-methylphenyl)selenenyl]uracil] | 0.7 nM | 29.2 µM
29 | CCOCn1c([Se]c2cc(C)cc(C)c2)c(C(C)C)c(=O)[nH]c1=O [Compound 50, 6-[(3,5-dimethylphenyl)selenenyl]-1-(ethoxymethyl)-5-isopropyluracil] | 0.07 nM | 29.2 µM
30 | CCOCn1c([Se]c2cc(F)cc(F)c2)c(C(C)C)c(=O)[nH]c1=O [Compound 51, 6-[(3,5-difluorophenyl)selenenyl]-1-(ethoxymethyl)-5-isopropyluracil] | 1.2 nM | 27.5 µM
31 | CC(C)c1c([Se]c2ccccc2)n(COCc2ccccc2)c(=O)[nH]c1=O [Compound 52, 1-[(benzyloxy)methyl]-5-isopropyl-6-(phenylselenenyl)uracil] | 0.1 nM | 29.4 µM
32 | Cc1cccc([Se]c2c(C(C)C)c(=O)[nH]c(=O)n2COCc2ccccc2)c1 [Compound 53, 1-[(benzyloxy)methyl]-5-isopropyl-6-[(3-methylphenyl)selenenyl]uracil] | 0.07 nM | 30.8 µM
33 | Cc1cc(C)cc([Se]c2c(C(C)C)c(=O)[nH]c(=O)n2COCc2ccccc2)c1 [Compound 54, 1-[(benzyloxy)methyl]-6-[(3,5-dimethylphenyl)selenenyl]-5-isopropyluracil] | 0.021 nM | 30.2 µM
34 | CCCCn1c([Se]c2ccccc2)c(CC)c(=O)[nH]c1=O [Compound 64, 1-butyl-5-ethyl-6-(phenylselenenyl)uracil] | 40 nM | 27.3 µM
35 | CCCCn1c([Se]c2cc(C)cc(C)c2)c(CC)c(=O)[nH]c1=O [Compound 65, 1-butyl-6-[(3,5-dimethylphenyl)selenenyl]-5-ethyluracil] | 3 nM | 27.9 µM
36 | CCc1c([Se]c2ccccc2)n(CCCc2ccccc2)c(=O)[nH]c1=O [Compound 73, 5-ethyl-1-(3-phenylpropyl)-6-(phenylselenenyl)uracil] | 3 nM | 26.1 µM
37 | CCc1c([Se]c2cc(C)cc(C)c2)n(CCCc2ccccc2)c(=O)[nH]c1=O [Compound 74, 6-[(3,5-dimethylphenyl)selenenyl]-5-ethyl-1-(3-phenylpropyl)-uracil] | 8 nM | 27.7 µM
38 | CCCCn1c([Se]c2ccccc2)c(C(C)C)c(=O)[nH]c1=O [Compound 81, 1-butyl-5-isopropyl-6-(phenylselenenyl)uracil] | 2 nM | 27.1 µM
